Test results from ChEMBL document CHEMBL1764959, “Design, synthesis, and structure-activity relationship studies of thiophene-3-carboxamide derivatives as dual inhibitors of the c-Jun N-terminal kinase” (Bioorg Med Chem, 2011).
pIC50, pKd: −log10 of the molar value.

Legend:
[1] = molecular target: T1, Mitogen-activated protein kinase 8 (Homo sapiens, UniProt P45983); experiment: Inhibition of JNK1 by TR-FRET assay
[2] = molecular target: Serine/threonine-protein kinase Nek1 (Homo sapiens) (UniProt Q96PY6); experiment: Inhibition of NEK1 at 25 uM by TR-FRET assay
[3] = molecular target: Mitogen-activated protein kinase 14 (Homo sapiens) (UniProt Q16539); experiment: Inhibition of MAPK14 at 25 uM by TR-FRET assay
[4] = molecular target: T1, Mitogen-activated protein kinase 8; settings: 25 uM
Description: Inhibition of JNK1 at 25 uM by TR-FRET assay

[5] = molecular target: Serine/threonine-protein kinase B-raf (Homo sapiens) (UniProt P15056); experiment: Inhibition of BRAF at 25 uM by TR-FRET assay
[6] = molecular target: Mitogen-activated protein kinase 3 (Homo sapiens) (UniProt P27361); experiment: Inhibition of MAPK3 at 25 uM by TR-FRET assay
[7] = molecular target: Protein kinase C alpha type (Homo sapiens) (UniProt P17252); experiment: Inhibition of PRKCA at 25 uM by TR-FRET assay
[8] = molecular target: RAC-alpha serine/threonine-protein kinase (Homo sapiens) (UniProt P31749); experiment: Inhibition of AKT1 at 25 uM by TR-FRET assay
[9] = molecular target: Dual specificity mitogen-activated protein kinase kinase 1 (Homo sapiens) (UniProt Q02750); experiment: Inhibition of MAK2K1 at 25 uM by TR-FRET assay
[10] = molecular target: Inhibitor of nuclear factor kappa-B kinase subunit alpha (Homo sapiens) (UniProt O15111); experiment: Inhibition of CHUK at 25 uM by TR-FRET assay
[11] = molecular target: Mitogen-activated protein kinase kinase kinase 9 (Homo sapiens) (UniProt P80192); experiment: Inhibition of MAPK3K9 at 25 uM by TR-FRET assay
[12] = molecular target: Phosphatidylinositol 4,5-bisphosphate 3-kinase catalytic subunit alpha isoform (Homo sapiens) (UniProt P42336); experiment: Inhibition of PI3Kalpha at 25 uM by TR-FRET assay
[13] = molecular target: Aurora kinase A (Homo sapiens) (UniProt O14965); experiment: Inhibition of AURK A at 25 uM by TR-FRET assay
[14] = molecular target: T2, Mitogen-activated protein kinase 9 (Homo sapiens, UniProt P45984); experiment: Binding affinity to JNK2
[15] = molecular target: Serine/threonine-protein kinase mTOR (Homo sapiens) (UniProt P42345); experiment: Inhibition of FRAP1 at 25 uM by TR-FRET assay
[16] = molecular target: Rho-associated protein kinase 1 (Homo sapiens) (UniProt Q13464); experiment: Inhibition of ROCK1 at 25 uM by TR-FRET assay
[17] = molecular target: Calcium/calmodulin-dependent protein kinase type 1 (Homo sapiens) (UniProt Q14012); experiment: Inhibition of CAMK1 at 25 uM by TR-FRET assay
[18] = molecular target: Mitogen-activated protein kinase 10 (Homo sapiens) (UniProt P53779); experiment: Inhibition of JNK3 at 25 uM by TR-FRET assay
[19] = molecular target: Cyclin-dependent kinase 1 (Homo sapiens) (UniProt P06493); experiment: Inhibition of CDK1 at 25 uM by TR-FRET assay
[20] = molecular target: T2, Mitogen-activated protein kinase 9; experiment: Inhibition of JNK2 at 25 uM by TR-FRET assay
[21] = molecular target: T1, Mitogen-activated protein kinase 8; experiment: Displacement of biotin-labeled JIP1 peptide from JNK1 by DELFIA assay
[22] = molecular target: Mitogen-activated protein kinase 14 (Homo sapiens) (UniProt Q16539); experiment: Inhibition of MAPK14 at 25 uM by direct TR-FRET assay
[23] = molecular target: Mitogen-activated protein kinase kinase kinase kinase 2 (Homo sapiens) (UniProt Q12851); experiment: Inhibition of MAP4K2 at 25 uM by TR-FRET assay
[24] = molecular target: Glycogen synthase kinase-3 alpha (Homo sapiens) (UniProt P49840); experiment: Inhibition of GSK3alpha at 25 uM by TR-FRET assay
Plasma = experiment: Metabolic stability in rat plasma after 60 mins by LC/MS analysis; assay type: ADME, cell-free; settings: 1 h
[25] = molecular target: Sphingosine kinase 1 (Homo sapiens) (UniProt Q9NYA1); experiment: Inhibition of SPHK1 at 25 uM by TR-FRET assay
[26] = molecular target: 5'-AMP-activated protein kinase catalytic subunit alpha-1 (Homo sapiens) (UniProt Q13131); experiment: Inhibition of AMPK A1 at 25 uM by TR-FRET assay
[27] = molecular target: 3-phosphoinositide-dependent protein kinase 1 (Homo sapiens) (UniProt O15530); experiment: Inhibition of PDK1 at 25 uM by direct TR-FRET assay
[28] = molecular target: Serine/threonine-protein kinase pim-1 (Homo sapiens) (UniProt P11309); experiment: Inhibition of PIM1 at 25 uM by TR-FRET assay
[29] = molecular target: Mitogen-activated protein kinase 1 (Homo sapiens) (UniProt P28482); experiment: Inhibition of MAPK1 at 25 uM by TR-FRET assay
[30] = molecular target: Serine/threonine-protein kinase Chk1 (Homo sapiens) (UniProt O14757); experiment: Inhibition of CHEK1 at 25 uM by TR-FRET assay
Liver microsomes = experiment: Half life in rat liver microsomes by LC/MS analysis; assay type: ADME, Microsome

T1 sequence (P45983 whole entry): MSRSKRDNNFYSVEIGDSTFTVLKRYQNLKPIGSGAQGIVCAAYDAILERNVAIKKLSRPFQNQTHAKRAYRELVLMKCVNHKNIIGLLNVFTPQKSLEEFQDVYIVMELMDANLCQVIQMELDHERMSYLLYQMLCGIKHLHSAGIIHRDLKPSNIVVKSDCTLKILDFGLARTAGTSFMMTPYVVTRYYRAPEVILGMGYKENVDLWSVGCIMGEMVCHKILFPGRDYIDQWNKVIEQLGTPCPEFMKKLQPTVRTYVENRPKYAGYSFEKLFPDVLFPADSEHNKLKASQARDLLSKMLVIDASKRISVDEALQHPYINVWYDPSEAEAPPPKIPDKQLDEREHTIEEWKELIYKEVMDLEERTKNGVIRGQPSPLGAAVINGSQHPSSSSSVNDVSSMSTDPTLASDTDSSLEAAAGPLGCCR
Sequence of Mitogen-activated protein kinase 14 (Homo sapiens) (Q16539 whole entry): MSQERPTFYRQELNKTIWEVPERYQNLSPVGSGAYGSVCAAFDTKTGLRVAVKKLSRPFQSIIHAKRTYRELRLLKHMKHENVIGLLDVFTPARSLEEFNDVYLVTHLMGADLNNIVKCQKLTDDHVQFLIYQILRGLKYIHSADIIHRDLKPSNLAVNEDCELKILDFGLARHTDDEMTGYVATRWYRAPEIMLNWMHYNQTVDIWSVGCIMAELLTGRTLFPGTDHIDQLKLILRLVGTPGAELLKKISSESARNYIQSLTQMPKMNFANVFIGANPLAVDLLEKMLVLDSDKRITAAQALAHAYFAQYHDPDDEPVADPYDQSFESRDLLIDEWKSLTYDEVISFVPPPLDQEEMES
Sequence of Serine/threonine-protein kinase Chk1 (Homo sapiens) (O14757 whole entry): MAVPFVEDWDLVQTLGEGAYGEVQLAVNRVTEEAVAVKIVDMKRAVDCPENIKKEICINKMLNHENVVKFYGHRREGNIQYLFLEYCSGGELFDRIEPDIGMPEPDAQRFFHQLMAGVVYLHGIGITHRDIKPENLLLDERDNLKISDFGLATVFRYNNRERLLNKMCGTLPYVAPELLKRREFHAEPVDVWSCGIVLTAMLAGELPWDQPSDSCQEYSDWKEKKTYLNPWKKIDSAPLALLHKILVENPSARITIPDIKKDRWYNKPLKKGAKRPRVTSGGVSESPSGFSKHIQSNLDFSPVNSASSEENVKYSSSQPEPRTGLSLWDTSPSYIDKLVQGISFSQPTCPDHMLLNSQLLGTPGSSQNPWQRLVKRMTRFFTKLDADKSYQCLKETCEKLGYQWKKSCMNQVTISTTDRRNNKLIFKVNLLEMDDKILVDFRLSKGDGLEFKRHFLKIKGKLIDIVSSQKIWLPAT
Sequence of Serine/threonine-protein kinase pim-1 (Homo sapiens) (P11309 whole entry, looked up): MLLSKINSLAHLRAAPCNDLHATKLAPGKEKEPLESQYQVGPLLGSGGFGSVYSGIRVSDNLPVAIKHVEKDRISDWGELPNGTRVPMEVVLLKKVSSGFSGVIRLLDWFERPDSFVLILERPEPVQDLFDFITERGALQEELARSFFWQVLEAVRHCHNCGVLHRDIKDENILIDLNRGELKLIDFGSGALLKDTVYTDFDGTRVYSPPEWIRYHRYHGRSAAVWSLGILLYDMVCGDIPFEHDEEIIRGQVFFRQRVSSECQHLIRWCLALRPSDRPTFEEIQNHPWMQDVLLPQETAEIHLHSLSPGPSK
Sequence of Aurora kinase A (Homo sapiens) (O14965 whole entry): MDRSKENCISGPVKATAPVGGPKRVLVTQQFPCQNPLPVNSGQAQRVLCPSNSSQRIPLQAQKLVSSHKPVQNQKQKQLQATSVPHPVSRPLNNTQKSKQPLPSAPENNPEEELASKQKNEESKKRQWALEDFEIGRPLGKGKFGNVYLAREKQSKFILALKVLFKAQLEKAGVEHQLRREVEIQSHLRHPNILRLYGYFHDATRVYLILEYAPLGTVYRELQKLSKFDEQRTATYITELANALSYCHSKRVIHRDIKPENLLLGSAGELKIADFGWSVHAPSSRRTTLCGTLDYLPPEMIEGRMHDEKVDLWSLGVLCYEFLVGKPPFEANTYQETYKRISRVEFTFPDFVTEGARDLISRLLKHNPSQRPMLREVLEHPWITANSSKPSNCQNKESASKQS
Sequence of Mitogen-activated protein kinase kinase kinase 9 (Homo sapiens) (P80192 whole entry, looked up, canonical isoform): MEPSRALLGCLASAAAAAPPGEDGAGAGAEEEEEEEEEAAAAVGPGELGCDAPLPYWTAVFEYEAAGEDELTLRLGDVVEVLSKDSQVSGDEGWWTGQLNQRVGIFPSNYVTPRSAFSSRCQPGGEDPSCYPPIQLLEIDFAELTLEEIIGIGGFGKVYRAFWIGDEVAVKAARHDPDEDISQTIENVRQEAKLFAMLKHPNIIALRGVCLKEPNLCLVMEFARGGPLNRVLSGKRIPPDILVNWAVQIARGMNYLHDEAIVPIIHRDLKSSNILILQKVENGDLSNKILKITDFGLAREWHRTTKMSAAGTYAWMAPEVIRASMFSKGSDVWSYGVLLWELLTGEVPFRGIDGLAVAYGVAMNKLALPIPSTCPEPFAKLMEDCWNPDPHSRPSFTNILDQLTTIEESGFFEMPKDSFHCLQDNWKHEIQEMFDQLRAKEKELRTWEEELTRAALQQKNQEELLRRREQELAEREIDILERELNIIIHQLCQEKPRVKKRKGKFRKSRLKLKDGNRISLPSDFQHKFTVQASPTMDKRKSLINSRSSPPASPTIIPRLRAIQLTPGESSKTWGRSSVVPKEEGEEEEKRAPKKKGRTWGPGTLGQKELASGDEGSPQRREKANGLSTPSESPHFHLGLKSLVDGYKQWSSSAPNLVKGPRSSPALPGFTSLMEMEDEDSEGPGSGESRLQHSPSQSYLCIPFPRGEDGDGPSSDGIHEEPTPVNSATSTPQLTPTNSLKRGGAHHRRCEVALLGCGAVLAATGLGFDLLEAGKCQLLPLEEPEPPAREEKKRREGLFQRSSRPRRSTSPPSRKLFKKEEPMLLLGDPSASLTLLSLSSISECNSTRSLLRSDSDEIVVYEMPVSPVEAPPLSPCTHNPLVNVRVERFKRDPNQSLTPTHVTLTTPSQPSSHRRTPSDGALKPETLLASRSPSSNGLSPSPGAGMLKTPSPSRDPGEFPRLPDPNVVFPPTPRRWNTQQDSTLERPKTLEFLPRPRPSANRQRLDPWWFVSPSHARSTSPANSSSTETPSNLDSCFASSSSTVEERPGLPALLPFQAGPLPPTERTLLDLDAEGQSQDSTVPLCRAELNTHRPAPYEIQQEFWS
Sequence of 5'-AMP-activated protein kinase catalytic subunit alpha-1 (Homo sapiens) (Q13131 whole entry, looked up): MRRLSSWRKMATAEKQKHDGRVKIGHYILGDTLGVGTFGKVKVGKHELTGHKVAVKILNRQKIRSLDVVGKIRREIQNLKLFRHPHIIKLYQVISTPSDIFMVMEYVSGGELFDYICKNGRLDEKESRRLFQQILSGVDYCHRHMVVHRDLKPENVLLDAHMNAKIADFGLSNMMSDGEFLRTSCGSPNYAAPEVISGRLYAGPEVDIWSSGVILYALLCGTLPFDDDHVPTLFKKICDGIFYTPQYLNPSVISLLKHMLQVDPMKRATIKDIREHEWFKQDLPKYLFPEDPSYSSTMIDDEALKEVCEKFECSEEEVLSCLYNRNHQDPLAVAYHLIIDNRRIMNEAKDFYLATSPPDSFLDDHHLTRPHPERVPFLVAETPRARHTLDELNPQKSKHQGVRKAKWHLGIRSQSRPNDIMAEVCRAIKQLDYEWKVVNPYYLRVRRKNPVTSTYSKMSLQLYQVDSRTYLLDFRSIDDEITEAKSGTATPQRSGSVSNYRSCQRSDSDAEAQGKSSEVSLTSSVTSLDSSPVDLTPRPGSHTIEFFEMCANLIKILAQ
Sequence of Inhibitor of nuclear factor kappa-B kinase subunit alpha (Homo sapiens) (O15111 whole entry): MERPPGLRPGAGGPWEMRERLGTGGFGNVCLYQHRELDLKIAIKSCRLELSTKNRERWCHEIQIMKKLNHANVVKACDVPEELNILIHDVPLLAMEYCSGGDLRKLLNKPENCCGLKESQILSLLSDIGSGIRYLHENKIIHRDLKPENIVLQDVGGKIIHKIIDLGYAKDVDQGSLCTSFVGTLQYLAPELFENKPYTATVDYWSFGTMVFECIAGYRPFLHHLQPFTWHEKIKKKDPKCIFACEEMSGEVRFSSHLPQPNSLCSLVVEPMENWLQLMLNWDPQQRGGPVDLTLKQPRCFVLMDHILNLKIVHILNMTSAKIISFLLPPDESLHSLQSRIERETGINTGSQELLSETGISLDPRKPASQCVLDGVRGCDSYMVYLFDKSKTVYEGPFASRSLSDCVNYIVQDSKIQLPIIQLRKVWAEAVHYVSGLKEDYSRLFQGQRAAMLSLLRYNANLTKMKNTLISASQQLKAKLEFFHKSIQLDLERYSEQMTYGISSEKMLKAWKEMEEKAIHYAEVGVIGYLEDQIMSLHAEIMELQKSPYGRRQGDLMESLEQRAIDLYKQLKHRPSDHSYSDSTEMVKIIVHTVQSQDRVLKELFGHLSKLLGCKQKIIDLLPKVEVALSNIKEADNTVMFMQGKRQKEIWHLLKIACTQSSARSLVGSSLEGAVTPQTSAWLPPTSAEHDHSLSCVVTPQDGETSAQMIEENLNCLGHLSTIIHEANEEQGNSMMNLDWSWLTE
Sequence of Mitogen-activated protein kinase 3 (Homo sapiens) (P27361 whole entry): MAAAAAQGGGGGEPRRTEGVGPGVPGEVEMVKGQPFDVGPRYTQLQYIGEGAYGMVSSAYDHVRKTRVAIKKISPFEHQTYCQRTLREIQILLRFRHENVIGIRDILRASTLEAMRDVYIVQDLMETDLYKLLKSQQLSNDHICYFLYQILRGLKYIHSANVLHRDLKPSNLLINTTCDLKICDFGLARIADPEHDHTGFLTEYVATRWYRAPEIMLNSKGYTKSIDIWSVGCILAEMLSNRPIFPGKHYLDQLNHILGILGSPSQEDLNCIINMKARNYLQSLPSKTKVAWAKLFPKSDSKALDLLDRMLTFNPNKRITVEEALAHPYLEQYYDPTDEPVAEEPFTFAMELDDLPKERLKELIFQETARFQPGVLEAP

Compound: NC(=O)c1ccsc1NC(=O)/C=C/c1ccccc1
- pIC50 [1]: < 4.00

Compound: O=C(Cc1cccc2ccccc12)Nc1sccc1C(=O)O
- pIC50 [1]: < 4.00

Compound: Cc1cccc(CC(=O)Nc2sccc2C(N)=O)c1
- pIC50 [1]: 5.27

Compound: NC(=O)c1ccsc1NC(=O)Cc1csc2ccccc12
- inhibition [2]: 0%
- inhibition [3]: 11%
- inhibition [4]: 79%
- inhibition [5]: 2%
- inhibition [6]: 3%
- inhibition [7]: 0%
- inhibition [8]: 5%
- inhibition [9]: 0%
- pIC50 [1]: 5.89
- inhibition [10]: 0%
- inhibition [11]: 0%
- inhibition [12]: 4%
- inhibition [13]: 0%
- pKd [14]: 6.19
- inhibition [15]: 0%
- inhibition [16]: 0%
- inhibition [17]: 2%
- inhibition [18]: 18%
- inhibition [19]: 3%
- inhibition [20]: 72%
- pIC50 [21]: 5.34
- inhibition [22]: 2%
- inhibition [23]: 1%
- inhibition [24]: 16%
- Stability (Plasma): Stable
- inhibition [25]: 1%
- inhibition [26]: 0%
- inhibition [27]: 0%
- inhibition [28]: 0%
- inhibition [29]: 4%
- inhibition [30]: 0%

Compound: NC(=O)c1ccsc1NC(=O)Cc1ccc(Cl)cc1
- pIC50 [1]: 4.73

Compound: NC(=O)c1ccsc1NC(=O)Cc1ccc2ccccc2c1
- pIC50 [1]: < 4.60

Compound: CC(C)Cc1ccc(CC(=O)Nc2sccc2C(N)=O)cc1
- pIC50 [1]: < 4.60

Compound: NC(=O)c1ccsc1NC(=O)Cc1cccnc1
- pIC50 [1]: 5.09

Compound: NC(=O)c1ccccc1NC(=O)Cc1cccc2ccccc12
- pIC50 [1]: < 4.00

Compound: NC(=O)c1ccc(NC(=O)Cc2cccc3ccccc23)s1
- pIC50 [1]: < 4.00

Compound: NC(=O)c1ccsc1NC(=O)Cc1ccccc1I
- pIC50 [1]: 5.47

Compound: NC(=O)c1ccsc1NC(=O)Cc1ccc(C(F)(F)F)cc1
- pIC50 [1]: 5.19

Compound: N#Cc1ccc(CC(=O)Nc2sccc2C(N)=O)cc1
- pIC50 [1]: 5.47

Compound: NC(=O)c1ccsc1NC(=O)Cc1c(F)cccc1F
- pIC50 [1]: 5.13

Compound: NC(=O)c1ccsc1NC(=O)Cc1cccc(C(F)(F)F)c1
- pIC50 [1]: 5.12

Compound: NC(=O)c1ccsc1NC(=O)Cc1ccc2ccc3cccc4ccc1c2c34
- pIC50 [1]: < 4.30

Compound: Cc1cc(C)cc(CC(=O)Nc2sccc2C(N)=O)c1
- pIC50 [1]: 5.57

Compound: NC(=O)c1ccsc1NC(=O)Cc1nc2ccccc2[nH]1
- pIC50 [1]: < 4.60

Compound: NC(=O)c1ccsc1NC(=O)Cc1ccccc1Cl
- pIC50 [1]: 5.85
- t1/2 (Liver microsomes): 27 min
- Stability (Plasma): Stable

Compound: CCOc1ccc(CC(=O)Nc2sccc2C(N)=O)cc1
- pIC50 [1]: 5.72

Compound: NC(=O)c1ccsc1NC(=O)Cc1ccc(F)cc1
- pIC50 [1]: 5.29

Compound: NC(=O)c1ccsc1NC(=O)Cc1ccccc1
- pIC50 [1]: 5.44

Compound: NC(=O)c1ccsc1NC(=O)Cc1csc(-c2ccccc2)n1
- pIC50 [1]: < 4.60

Compound: Cc1ccccc1CC(=O)Nc1sccc1C(N)=O
- pIC50 [1]: 5.22

Compound: COc1ccccc1CC(=O)Nc1sccc1C(N)=O
- pIC50 [1]: 4.92

Compound: COc1ccc(CC(=O)Nc2sccc2C(N)=O)cc1OC
- pIC50 [1]: < 4.60

Compound: COC(=O)c1ccsc1NC(=O)Cc1cccc2ccccc12
- pIC50 [1]: < 4.00

Compound: NC(=O)c1ccsc1NC(=O)Cc1cccc(I)c1
- pIC50 [1]: 5.74

Compound: NC(=O)c1ccsc1NC(=O)Cc1ccc(-c2ccccc2)cc1
- pIC50 [1]: < 4.30

Compound: CC1CN(CC(=O)Nc2sccc2C(N)=O)CC(C)O1 (centres undefined)
- pIC50 [1]: 4.19

Compound: COc1ccc2c(CC(=O)Nc3sccc3C(N)=O)c(Br)ccc2c1
- pIC50 [1]: < 4.60

Compound: NC(=O)c1ccsc1NC(=O)Cc1ccc2c(c1)CCCC2
- pIC50 [1]: 5.44

Compound: NC(=O)c1ccsc1NC(=O)Cc1c(F)cccc1Cl
- pIC50 [1]: 4.90

Compound: NC(=O)c1ccsc1NC(=O)Cc1coc2ccccc12
- pIC50 [1]: < 4.60

Compound: NC(=O)c1ccsc1NC(=O)Cc1ccc([N+](=O)[O-])cc1
- pIC50 [1]: 5.54

Compound: NC(=O)c1ccsc1NC(=O)Cc1cc(F)cc(F)c1
- pIC50 [1]: 5.09

Compound: NC(=O)c1ccsc1NC(=O)CCc1ccccc1
- pIC50 [1]: < 4.00
